Results on 4 molecules are retold here after PMC5077133, “Towards Development of Small Molecule Lipid II Inhibitors as Novel Antibiotics” (PLoS ONE, 2016).

For one data set, the system named is A. baumanii ATCC 19606. The data set is described as follows: Antibacterial activity (MIC, broth dilution). In kind it is cell-based, Acinetobacter baumanii. To be noted: CLSI, in µg/mL. From the text: Staphylococcus aureus ATCC 29213, Escherichia coli ATCC 25922, Enterococcus faecalis ATCC 29212, Streptococcus pneumonia ATCC 49619 and Acinetobacter baumanii ATCC 19606 were obtained from Microbiologics (St. Cloud, MN). E. faecalis ATCC 51575, ATCC 51299 and REMEL C99707 and E. faecium ATCC 51559 (MDR), REMEL IH79985 and REMEL C110914 were generously provided by the Laboratory of Pathology, University of Maryland Baltimore School of Medicine. Unless stated otherwise, chemicals and reagents were purchased from Sigma.
(§1) Determination of the Minimal Inhibitory Concentrations (MIC) by dilution was carried out by broth dilution according to CLSI standards.
Background: Dilution methods test growth across graded concentrations, often in twofold steps.

Another data set deals with E. faecium F118 (VRE). In words: Antibacterial activity (MIC, broth dilution). In kind it is cell-based. To be noted: CLSI, in µg/mL. As for the experimental part: as §1
A further data set concerns S. aureus MRSA 1094. In words: Antibacterial activity (MIC, broth dilution). To be noted: CLSI. In kind it is cell-based. As for the experimental part:
as §1

In a further data set the test system is P. aeruginosa X13273. The data set is described as follows: Antibacterial activity (MIC, broth dilution). To be noted: CLSI, in µg/mL. In kind it is cell-based. The method, then:
as §1

The next data set concerns E. cloacae ATCC 13047. In words: Antibacterial activity (MIC, broth dilution). In kind it is cell-based. To be noted: CLSI. As for the experimental part: as §1
Another data set deals with E. faecium EF1509 (VRE). The data set is described as follows: Antibacterial activity (MIC, broth dilution). In kind it is cell-based. To be noted: CLSI, in µg/mL. The method, then: as §1
For a further data set, the system named is P. aeruginosa ATCC 27853. In words: Antibacterial activity (MIC, broth dilution). In kind it is cell-based. To be noted: CLSI. As for the experimental part: as §1
Data set [1] deals with K. pneumoniae NR-15410 (KPC). The data set is described as follows: Antibacterial activity (MIC, broth dilution). In kind it is cell-based. To be noted: CLSI. The method, then: as §1
For data set [2], the system named is K. pneumoniae NR-15411 (KPC). The data set is described as follows: Antibacterial activity (MIC, broth dilution). To be noted: CLSI. In kind it is cell-based. The method, then: as §1
The subject of another data set is E. aerogenes ATCC 13048. In words: Antibacterial activity (MIC, broth dilution). In kind it is cell-based. To be noted: CLSI. The method, then: as §1
The test system of a further data set is P. aeruginosa PA01. In words: Antibacterial activity (MIC, broth dilution). It is filed as cell-based. To be noted: CLSI. As for the experimental part:
as §1

For data set [3], the system named is S. aureus HFH-30123 (MRSA). The data set is described as follows: Antibacterial activity (MIC, broth dilution). To be noted: CLSI. In kind it is cell-based. As for the experimental part: as §1
A short description of data set [4]: Lipid II binding by Surface Plasmon Resonance. To be noted: SPR, immobilized 3-Lipid II, 25°C. The method, then:
Short-chain water-soluble Lipid II containing a lipid tail of three isoprene units was generated and purified essentially as described. Typically, M. flavus vesicles (120 μmol lipid-Pi) were incubated together with 500 μmol UDP-GlcNAc, 500 μmol UDP-MurNAC-pentapeptide and 400 μmol farnesyl phosphate in 100 mM Tris-HCl pH 8.0, 5 mM MgCl2. The incubation lasted two hours at room temperature for 3-P. The synthesis of 3-Lipid II was followed using RP-8 reversed phase TLC (Merck) developed in 75% methanol. For purification, the membranes were removed by centrifugation at 40,000 x g and the supernatant was collected and loaded on a C18 HPLC column and eluted with a linear gradient from 50 mM ammonium bicarbonate to 100% methanol in 30 minutes. Farnesyl-Lipid II (3-Lipid II) eluted at approximately 60% methanol. Its identity was confirmed by mass spectroscopy. Surface Plasmon Resonance binding experiments were carried out on a BIAcore T100 system (BIAcore Inc., Piscataway, NY) at 25°C. The assay buffer was 10 mM HEPES, 150 mM NaCl, 0.05% surfactant P20, pH 7.4 (± 3 mM EDTA) supplemented with 10% DMSO. 3-Lipid II (50 RUs) was immobilized on CM5 sensor chips using the amine-coupling chemistry recommended by the manufacturer. For initial determination of binding, compounds were introduced into the flow-cells (30 μl/min) in the running buffer at 10 μM. Resonance signals were corrected for nonspecific binding by subtracting the background of the control flow-cell. After each analysis, the sensor chip surfaces were regenerated with 50 mM NaOH for 30 s at a flow rate 100 μl/min, and equilibrated with the buffer prior to next injection. For binding kinetics studies, binding isotherms were analyzed with manufacturer-supplied software for BIAcore T100.

A further data set deals with HeLa cells. The data set is described as follows: Cytotoxicity against mammalian cells (MTS assay). It is filed as cell-based. The method, then: The cytotoxicity concentration of antibacterial compounds that produces half maximal decrease in viability (CC50) against mammalian cells (HeLa, ATCC CCL-2.2) was determined as described. The effect of compounds on HeLa cell viability was assessed in triplicate by measuring the mitochondrial activity using MTS assays according to the manufacturer’s instructions (Cell Titer 96 proliferation assay, Promega). The cells were incubated for 72 hours in RPMI1640 medium containing the compounds at final concentrations ranging from 64 to 0.125 μg/ml. CC50 was determined using a standard curve of serially diluted untreated cells in each experiment.
Background: Tetrazolium dyes change colour on reduction, which living cells bring about.

Turning to `CN(C)c1ccc(/C=C/C=C/c2cc(-c3ccccc3)cc(-c3ccccc3)[o+]2)cc1.F[B-](F)(F)F` [6jc43-1], the “Antibacterial activity (MIC) A. baumanii ATCC 19606” value with A. baumanii ATCC 19606 came out at 45.25. Further, the “Antibacterial activity (MIC) E. faecium F118 (VRE)” value with E. faecium F118 (VRE) is reported as 4. The molecule also yielded an Antibacterial activity (MIC) S. aureus MRSA 1094 in the data set with S. aureus MRSA 1094 of 4 µg/mL. For the same molecule, the “Antibacterial activity (MIC) P. aeruginosa X13273” value with P. aeruginosa X13273 is “>=64”. In the data set on E. cloacae ATCC 13047, this molecule came in with an Antibacterial activity (MIC) E. cloacae ATCC 13047 of at least 64 µg/mL. The “Antibacterial activity (MIC) E. faecium EF1509 (VRE)” value in the data set on E. faecium EF1509 (VRE) is 4. For the same molecule, in the data set with P. aeruginosa ATCC 27853, the Antibacterial activity (MIC) P. aeruginosa ATCC 27853 is at least 64 µg/mL. Besides, the Antibacterial activity (MIC) K. pneumoniae NR-15410 (KPC) in data set [1] was at least 64 µg/mL. This molecule had an Antibacterial activity (MIC) K. pneumoniae NR-15411 (KPC) in data set [2] of at least 64 µg/mL. In the data set with E. aerogenes ATCC 13048, this molecule returned an Antibacterial activity (MIC) E. aerogenes ATCC 13048 of at least 64 µg/mL. This molecule also showed an Antibacterial activity (MIC) P. aeruginosa PA01 with P. aeruginosa PA01 of at least 64 µg/mL. Further, the Antibacterial activity (MIC) S. aureus HFH-30123 (MRSA) in [3] was 4 µg/mL. Moreover, the Kd (commonly the equilibrium constant for the complex coming apart) in data set [4] came to 62 ± 6 µM. Also, the “CC50% (72 h HeLa cells)” value with HeLa cells was 0.93.
In the case of `CN(C)c1ccc(/C=C/C=C/c2cc(-c3ccc(Cl)cc3)cc(-c3ccc(Cl)cc3)[o+]2)cc1.F[B-](F)(F)F` [6jc43-2], the “Antibacterial activity (MIC) A. baumanii ATCC 19606” value with A. baumanii ATCC 19606 is “>=64”. Moreover, the “Antibacterial activity (MIC) E. faecium F118 (VRE)” value in the data set on E. faecium F118 (VRE) was “>=64”. The molecule also yielded an Antibacterial activity (MIC) S. aureus MRSA 1094 in the data set with S. aureus MRSA 1094 of at least 64 µg/mL. For the same molecule, the “Antibacterial activity (MIC) P. aeruginosa X13273” value in the data set with P. aeruginosa X13273 is “>=64”. In addition, the Antibacterial activity (MIC) E. cloacae ATCC 13047 with E. cloacae ATCC 13047 was at least 64 µg/mL. The “Antibacterial activity (MIC) E. faecium EF1509 (VRE)” value in the data set with E. faecium EF1509 (VRE) worked out at 64. The Antibacterial activity (MIC) P. aeruginosa ATCC 27853 in the data set on P. aeruginosa ATCC 27853 is at least 64 µg/mL. In addition, the Antibacterial activity (MIC) K. pneumoniae NR-15410 (KPC) in data set [1] is at least 64 µg/mL. The molecule also had an Antibacterial activity (MIC) K. pneumoniae NR-15411 (KPC) in data set [2] of at least 64 µg/mL. Moreover, in the data set with E. aerogenes ATCC 13048, the Antibacterial activity (MIC) E. aerogenes ATCC 13048 was at least 64 µg/mL. Besides, the Antibacterial activity (MIC) P. aeruginosa PA01 in the data set on P. aeruginosa PA01 is at least 64 µg/mL. This molecule also had an Antibacterial activity (MIC) S. aureus HFH-30123 (MRSA) in data set [3] of at least 64 µg/mL. For the same molecule, in the data set on HeLa cells, the “CC50% (72 h HeLa cells)” value is over 32.
On to `Cc1ccc(-c2cc(/C=C/c3ccc(N(C)C)cc3)[o+]c(-c3ccc(C)cc3)c2)cc1.F[B-](F)(F)F` [6jc51-1], for which, in the data set with A. baumanii ATCC 19606, the “Antibacterial activity (MIC) A. baumanii ATCC 19606” value was 8. In addition, the “Antibacterial activity (MIC) E. faecium F118 (VRE)” value in the data set with E. faecium F118 (VRE) was 2. Besides, the Antibacterial activity (MIC) S. aureus MRSA 1094 with S. aureus MRSA 1094 is 1 µg/mL. The “Antibacterial activity (MIC) P. aeruginosa X13273” value with P. aeruginosa X13273 amounted to 45.25. Besides, in the data set on E. cloacae ATCC 13047, the Antibacterial activity (MIC) E. cloacae ATCC 13047 worked out at 64 µg/mL. The “Antibacterial activity (MIC) E. faecium EF1509 (VRE)” value with E. faecium EF1509 (VRE) amounted to 0.5. In data set [1], this molecule came in with an Antibacterial activity (MIC) K. pneumoniae NR-15410 (KPC) of 16 µg/mL. This molecule also had an Antibacterial activity (MIC) K. pneumoniae NR-15411 (KPC) in [2] of 64 µg/mL. Further, in the data set with E. aerogenes ATCC 13048, the Antibacterial activity (MIC) E. aerogenes ATCC 13048 stood at 64 µg/mL. The molecule further came in with an Antibacterial activity (MIC) P. aeruginosa PA01 in the data set with P. aeruginosa PA01 of 64 µg/mL. In [3], this molecule came in with an Antibacterial activity (MIC) S. aureus HFH-30123 (MRSA) of 2 µg/mL. Binding in [4] was put at a Kd of 9.2 ± 2 µM. In addition, in the data set on HeLa cells, the “CC50% (72 h HeLa cells)” value is “<.78125”.
On to `CCc1ccc(-c2cc(/C=C/c3ccc(N(C)C)cc3)[o+]c(-c3ccc(CC)cc3)c2)cc1.F[B-](F)(F)F` [6jc64-1], for which the “Antibacterial activity (MIC) A. baumanii ATCC 19606” value with A. baumanii ATCC 19606 is 16. In the data set on E. faecium F118 (VRE), the “Antibacterial activity (MIC) E. faecium F118 (VRE)” value is given as 5.66. Moreover, in the data set with S. aureus MRSA 1094, the Antibacterial activity (MIC) S. aureus MRSA 1094 is 4 µg/mL. Further, the “Antibacterial activity (MIC) P. aeruginosa X13273” value with P. aeruginosa X13273 is reported as “>=64”. Further, the Antibacterial activity (MIC) E. cloacae ATCC 13047 with E. cloacae ATCC 13047 was at least 64 µg/mL. The “Antibacterial activity (MIC) E. faecium EF1509 (VRE)” value in the data set on E. faecium EF1509 (VRE) came out at 4. Also, in the data set with P. aeruginosa ATCC 27853, the Antibacterial activity (MIC) P. aeruginosa ATCC 27853 was at least 64 µg/mL. For the same molecule, in data set [1], the Antibacterial activity (MIC) K. pneumoniae NR-15410 (KPC) was at least 64 µg/mL. The Antibacterial activity (MIC) K. pneumoniae NR-15411 (KPC) in data set [2] was at least 64 µg/mL. Also, in the data set on E. aerogenes ATCC 13048, the Antibacterial activity (MIC) E. aerogenes ATCC 13048 was at least 64 µg/mL. For the same molecule, the Antibacterial activity (MIC) P. aeruginosa PA01 in the data set on P. aeruginosa PA01 is at least 64 µg/mL. Further, the Antibacterial activity (MIC) S. aureus HFH-30123 (MRSA) in data set [3] worked out at 4 µg/mL. Further, the “CC50% (72 h HeLa cells)” value in the data set with HeLa cells is “<.78125”.
